Assay results published in US9102752B2, “Peptide vaccine for prevention and immunotherapy of dementia of the Alzheimer's type” (United Biomedical, Inc., priority 2013, dated 2015).

What was measured:
[1] = system: anti-Aβ antibodies in macaque antisera; experiment: Specificity analysis (10-mer peptide ELISA) of antisera from Cynomolgus macaques; type: binding
[2] = system: anti-Aβ antibodies in sera of vaccinated patients; experiment: Epitope mapping, competitive binding inhibition EIA with patient sera (10-mer peptides, IC50); parameters: species or system human; Epitope mapping, fine specificity analysis, serum of subject P210: unit not given here; conditions: for Epitope mapping, fine specificity analysis, serum of subject P101: serum 16 wpi of vaccinated patient P101; for Epitope mapping, fine specificity analysis, serum of subject P102: serum 16 wpi of vaccinated patient P102; for Epitope mapping, fine specificity analysis, serum of subject P103: serum 16 wpi of vaccinated patient P103; for Epitope mapping, fine specificity analysis, serum of subject P104: serum 16 wpi of vaccinated patient P104; for Epitope mapping, fine specificity analysis, serum of subject P105: serum 16 wpi of vaccinated patient P105; for Epitope mapping, fine specificity analysis, serum of subject P106: serum 16 wpi of vaccinated patient P106; for Epitope mapping, fine specificity analysis, serum of subject P107: serum 16 wpi of vaccinated patient P107; for Epitope mapping, fine specificity analysis, serum of subject P108: serum 16 wpi of vaccinated patient P108; for Epitope mapping, fine specificity analysis, serum of subject P109: serum 16 wpi of vaccinated patient P109; for Epitope mapping, fine specificity analysis, serum of subject P201: serum 16 wpi of vaccinated patient P201; for Epitope mapping, fine specificity analysis, serum of subject P202: serum 16 wpi of vaccinated patient P202; for Epitope mapping, fine specificity analysis, serum of subject P203: serum 16 wpi of vaccinated patient P203; for Epitope mapping, fine specificity analysis, serum of subject P204: serum 16 wpi of vaccinated patient P204; for Epitope mapping, fine specificity analysis, serum of subject P205: serum 16 wpi of vaccinated patient P205; for Epitope mapping, fine specificity analysis, serum of subject P206: serum 16 wpi of vaccinated patient P206; for Epitope mapping, fine specificity analysis, serum of subject P207: serum 16 wpi of vaccinated patient P207; for Epitope mapping, fine specificity analysis, serum of subject P208: serum 16 wpi of vaccinated patient P208; for Epitope mapping, fine specificity analysis, serum of subject P209: serum 16 wpi of vaccinated patient P209; for Epitope mapping, fine specificity analysis, serum of subject P210: serum 16 wpi of vaccinated patient P210
[3] = antisera of macaques given UBI AD Vaccine 150 μg/dose, 9 WPI
[4] = antisera of macaques given UBI AD Vaccine 150 μg/dose, 15 WPI
[5] = antisera of macaques given UBI AD Vaccine 750 μg/dose, 9 WPI
[6] = antisera of macaques given UBI AD Vaccine 750 μg/dose, 15 WPI

Substance	Reactivity of antisera with peptide (specificity analysis ELISA) [1, 3]	Reactivity of antisera with peptide (specificity analysis ELISA) [1, 4]	Reactivity of antisera with peptide (specificity analysis ELISA) [1, 5]	Reactivity of antisera with peptide (specificity analysis ELISA) [1, 6]	Epitope mapping, fine specificity analysis, serum of subject P101 [2]	Epitope mapping, fine specificity analysis, serum of subject P102 [2]	Epitope mapping, fine specificity analysis, serum of subject P103 [2]	Epitope mapping, fine specificity analysis, serum of subject P104 [2]	Epitope mapping, fine specificity analysis, serum of subject P105 [2]	Epitope mapping, fine specificity analysis, serum of subject P106 [2]	Epitope mapping, fine specificity analysis, serum of subject P107 [2]	Epitope mapping, fine specificity analysis, serum of subject P108 [2]	Epitope mapping, fine specificity analysis, serum of subject P109 [2]	Epitope mapping, fine specificity analysis, serum of subject P201 [2]	Epitope mapping, fine specificity analysis, serum of subject P202 [2]	Epitope mapping, fine specificity analysis, serum of subject P203 [2]	Epitope mapping, fine specificity analysis, serum of subject P204 [2]	Epitope mapping, fine specificity analysis, serum of subject P205 [2]	Epitope mapping, fine specificity analysis, serum of subject P206 [2]	Epitope mapping, fine specificity analysis, serum of subject P207 [2]	other results
28 (HHQKLVFFAE; PEPTIDE (1)..(10) Abeta 13-22 or APP 770(H684-E693); listed as Homo sapiens) [compound 28]	0.044	0.052	0.046	0.032	0	0	0	0	0	0	0	0	0	0	0	0	0	0	0	0	Epitope mapping, fine specificity analysis, serum of subject P208 [2]: 0; Epitope mapping, fine specificity analysis, serum of subject P209 [2]: 0; Epitope mapping, fine specificity analysis, serum of subject P210 [2]: 0
11 (ISEVKMDAEF; PEPTIDE (1)..(10) Abeta -6-4 or APP 770(I666-F675); listed as Homo sapiens) [compound 11]	0.055	0.058	0.063	0.062	0	0	0	0	0	0	0	0	0	0	0	0	0	0	0	0	Epitope mapping, fine specificity analysis, serum of subject P208 [2]: 0; Epitope mapping, fine specificity analysis, serum of subject P209 [2]: 0; Epitope mapping, fine specificity analysis, serum of subject P210 [2]: 0
16 (MDAEFRHDSG; PEPTIDE (1)..(10) Abeta -1-9 or APP 770(M671-G680); listed as Homo sapiens) [compound 16]	0.056	0.061	0.051	0.056	420	12	0	0	0	0	0	0	0	9	116	0	17	0	0	2	Epitope mapping, fine specificity analysis, serum of subject P208 [2]: 6; Epitope mapping, fine specificity analysis, serum of subject P209 [2]: 0; Epitope mapping, fine specificity analysis, serum of subject P210 [2]: 121
17 (AEFRHDSGYE; PEPTIDE (1)..(10) Abeta 2-11 or APP 770(A673-E682); listed as Homo sapiens) [compound 17]	0.058	0.059	0.054	0.060	2	0	0	0	0	0	0	0	0	3	0	0	0	0	0	0	Epitope mapping, fine specificity analysis, serum of subject P208 [2]: 0; Epitope mapping, fine specificity analysis, serum of subject P209 [2]: 0; Epitope mapping, fine specificity analysis, serum of subject P210 [2]: 0
19 (FRHDSGYEVH; PEPTIDE (1)..(10) Abeta 4-13 or APP 770(F675-H684); listed as Homo sapiens) [compound 19]	0.085	0.076	0.066	0.096	0	0	0	0	0	0	0	0	0	0	0	0	0	0	0	0	Epitope mapping, fine specificity analysis, serum of subject P208 [2]: 0; Epitope mapping, fine specificity analysis, serum of subject P209 [2]: 0; Epitope mapping, fine specificity analysis, serum of subject P210 [2]: 0
